Assay results from patent US20140140929A1, “CHEMICALLY MODIFIED CELL-PENETRATING PEPTIDES FOR IMPROVED DELIVERY OF GENE MODULATING COMPOUNDS” (priority 2008, published 2014).

Columns and labels:
[1] = system: Jurkat suspension cells; experiment: Transfection of EGFP plasmids in Jurkat suspension cells (FACS); format: cell-based; details: 24 h, serum free media
Procedure: EGFP expression was assessed 24 h after transfection in serum free media by FACS. b) Histogram of corresponding Jurkat transfection. Although the overall transfection levels are rather low, PF6 has the ability to transfect a large fraction of cells in the population. c) Jurkat plasmid transfection not dependent on cell confluenncy. Intriguingly, with PF6 it is possible to transfect the majority of cells independent of confluency.
(§1) Formation of plasmid/CPP complexes: 0.5 μg of pGL3 luciferase expressing plasmid or pEGFP-C1 plasmid was mixed with CPPs at different charge ratios (1:1-1:4) in MQ water in 1/10th of the final treatment volume (50 μl). After 30 min, complexes were added to cells grown in 450 μl of fresh serum free media. When using Lipofectamine 2000, complexes were prepared according to manufacturers protocol (Promega, USA).
Plasmid transfections: For plasmid transfection, 80 000 CHO or Jurkat cells were seeded 24 h before treatment. Cells were treated for 4 h with pGL3/CPP complexes in serum free DMEMF12 after which media was replaced for full growth media for additionally 20 h. Cells were lysed and analyzed in accordance with the splice correction assay.

[2] = system: HPRT1 in SHSY5Y cells; experiment: siRNA treatment, HPRT1 knock-down in SHSY5Y neuroblastoma cells; format: cell-based, human
Procedure: HPRT1 knock-down in human SHSY5Y neuroblastoma cells following 20 h of siRNA treatment. PF6/siRNA particles where formulated at two different molar ratios and serial diluted to give a final treatment concentration of 100, 50 and 25 nM siRNA. Treatments were performed in full growth media and the RNAi response was compared to that induced by 100 nM siRNA complexed with Lipofectamine 2000.
(§2) Phosphorothioate 2′O methyl RNA (SCO) or anti-miR21 2′OMe RNA (with 33% LNA substitution) was mixed with CPPs at different molar ratios (1:0-1:20) in MQ water in 1/10th of the final treatment volume (i.e 50 μl). Complexes were formed for 30 min in RT and meanwhile media was replaced in 24-well plates to fresh serum free DMEM (450 μl). Thereafter, complexes were added to each well. The final concentration of SCO was kept constant at 200 nM and peptide concentration was varied or complexes were formed at a given molar ratio using 400 nM SCO and then serial diluted in water. Complexes were prepared according to manufacturers protocol when using the commercial transfection reagent Lipofectamine 2000 (Promega, USA). PepFect/siRNA complexes were essentially formed in a similar manner but using 100 nM siRNA as starting concentrations and molar ratios ranging from 20-40. Lower concentrations were generated by doing serial dilutions.

[3] = system: various cell types; experiment: siRNA delivery in various cell types, down-regulation of gene expression; format: cell-based; details: low siRNA concentrations
Procedure: as §2
siRNA transfections: Different luciferase-stable cell lines including HeLa, BHK21, and U2OS cells were seeded as in the other experiments. […] Cells were lysed and measured for luminescence 20 h later as described previously. The luminescence was normalized to protein content in each well and the RLU/mg value from untreated cells were considered as 100%. […]

[4] = system: HPRT1 in U2OS cells; experiment: siRNA treatment, HPRT1 mRNA down-regulation in osteosarcoma cells (U2OS), RT-PCR; format: cell-based
Procedure: Down-regulation of HPRT1 mRNA in osteosarcoma cells. […] In these experiments, Dicer-substrate siRNAs (longer versions that are processed by dicer) were used. Cells were treated in serum free media and mRNA levels were analyzed by RT-PCR 24 h post transfection.
as §2

[5] = system: HPRT1 in primary glia; experiment: siRNA treatment, HPRT1 in primary mixed glial cell culture; format: cell-based, rat
Procedure: RNAi in rat primary mixed glial cell culture following treatment with siRNA targeting HPRT1.
as §2

[6] = system: CHO cells; experiment: Transfection of luciferase-encoding plasmid in CHO cells; format: cell-based; details: 24 h
Procedure: as §1, with “After 30 min, complexes were added to cells grown in 450 μl of fresh serum free media.” left out
Plasmid transfections: For plasmid transfection, 80 000 CHO or Jurkat cells were seeded 24 h before treatment. […] Cells were lysed and analyzed in accordance with the splice correction assay.

[7] = siRNA concentration, SHSY5Y, target HPRT1

Stearyl-AGYLLGK[KK2sa4qn4]INLKALAALAKKIL-NH2 [Pepfect 6]
EGFP plasmid transfection, result in words [1]: significant transfections | RNAi response compared to Lipofectamine 2000 using 100 nM siRNA ([2]; MR40, 25 nM siRNA, full growth media, 20 h): significantly stronger | Compared to Lipofectamine ([2]; SHSY5Y, target HPRT1): superior | 70% inhibition [2, 7]: 10 to 25 nM | 90% inhibition [2, 7]: 50 to 100 nM | RNAi, result in words [3]: almost a complete RNAi | HPRT1 mRNA knock-down, result in words ([4]; Dicer-substrate siRNAs, both molar ratios, all concentrations, serum free media, 24 h): Significant knock-down | Compared to Lipofectamine ([4]; U2OS, target HPRT1): superior | 90% inhibition ([4]; siRNA concentration, U2OS, target HPRT1): 25 nM | Compared to Lipofectamine ([5]; Primary glia, target HPRT1): superior | siRNA-mediated gene silencing compared with Lipofectamine 2000 ([5]; in serum and under serum free conditions): significantly more potent than Lipofectamine 2000 | 90% inhibition ([5]; siRNA concentration, Primary glia, target HPRT1): 25 to 50 nM | transfection compared to Lipofectamine 2000 ([6]; CR4, serum media): twice as efficiently | transfection compared to Lipofectamine ([6]; charge ratio (CR) of 2, serum free media): one log higher
